Laboratory results: patent publication US20180064710A1, “ANTIFUNGAL TREATMENT OF PSORIASIS” (Gerbe Labs Inc., priority 2016, published 2018)
Like-named read-outs stand apart in the source and are kept apart here.

How the values were obtained:
Format in all cases: cell-based
[1] = test system: Aspergillus fumigatus + Candida albicans co-culture; assay: Broth microdilution MIC assay, co-culture of spores 1:1
Description: Broth Microdilution Minimal Inhibitory Concentration (MIC) assays were performed to obtain the MIC values for Itraconazole and Ketoconazole with an antibiotic (Vancomycin or Tobramycin or Amikacin) against the two fungal strains.
The strains were maintained as a frozen glycerol stocks at −80° C. The fungal strains were prepared by thawing a glycerol stock, streaking and growing onto Sabouraud's Dextrose Agar (SDA) plates, overnight at 35±2° C. in aerobic conditions and used for the assay.
The completely synthetic medium RPMI-1640 (with glutamine, without bicarbonate, and with phenol red as a pH indicator) was buffered with 0.165 mol/L MOPS (3-[N-morpholino] propanesulfonic acid) buffer was used as the growth medium for the fungal strains. Overnight cultures of the fungal strains were grown on Difco™ Sabouraud's Dextrose Agar (SDA) plates at 35° C. To induce conidium and sporangiospore formation, the culture plates were transferred to incubator and grown for 5-7 days 30° C. or until good sporulation was obtained. Approximately, 10 mL of 0.85% saline containing 0.01% of Tween 80 was used to poured on to the agar plate containing conidia or sporangiospores and hyphal fragments. The suspension containing conidia or sporangiospores and hyphal fragments was aspirated and transferred to a sterile tube. This mixture was filtered to separate the spores from the vegetative cells of the fungi. The supernatant containing only fungal spores was used for all the assays. Fungal spore inoculum was prepared in RPMI-1640 (with glutamine, without bicarbonate, and with phenol red as a pH indicator) was buffered with 0.165 mol/L MOPS (3-[N-morpholino] propanesulfonic acid) buffer to a final density of 10^6 CFU/mL using a hemocytometer.
Each MIC assay included 11 2-fold serial dilutions of the antifungal agents. Test concentrations for the test articles were tested at the following concentrations: 64 μg/mL, 32 μg/mL, 16 μg/mL, 8 μg/mL, 4 μg/mL, 2 μg/mL, 1 μg/mL, 0.5 μg/mL, 0.25 μg/mL, 0.125 μg/mL, and 0.0625 μg/mL. Broth microdilution assays were performed according to the procedures detailed in CLSI document M38-A2 (CLSI, 2008). Briefly, 2× stock solutions of test articles were prepared at 128 μg/mL. A two-fold serial dilution of the stock solution were performed. Diluted stock solutions of the fungal spores were adjusted (to be equivalent to 10^6 CFU/mL). 1× final concentration of the antifungals was obtained when they were combined with the fungal spore broth in the microtiter plate. Plates were incubated for 3-5 days at 35±2° C. in an ambient air incubator. MIC values recorded are the minimum concentration of the test articles that inhibits growth as observed by unaided eye. The MIC values was expressed in μg/mL. The assay was carried out in duplicates.

[2] = test system: Candida albicans; assay: Culture sensitivity, Patient 7 fungal isolate; conditions: Patient 7 culture
From the text: (§1) The patient underwent the standard workup for CRS, sleep disorder, and nasal obstruction, plus our diagnostic skin test and sinus CT scan.

[3] = test system: S. aureus, a gram negative bacteria; assay: Culture sensitivity, Patient 7 bacterial isolate; conditions: Patient 7 culture
From the text: as §1

[4] = A. fumigatus + C. albicans co-culture, repeated MIC study (Table 4), agent alone, read-out: MIC

In the case of `CCC(C)n1ncn(-c2ccc(N3CCN(c4ccc(OCC5COC(Cn6cncn6)(c6ccc(Cl)cc6Cl)O5)cc4)CC3)cc2)c1=O` (stereo not drawn) [Itraconazole], the MIC ([1]; A. fumigatus + C. albicans co-culture 1:1, first study (Table 3), read-out: MIC) is reported as 0.5 µg/mL, the MIC ([1]; A. fumigatus + C. albicans co-culture, repeated MIC study (Table 4), agent alone, listed as Itraconazone) is reported as 1 µg/mL and the MIC [1, 4] is reported as 1 µg/mL.
In the case of `CC(=O)N1CCN(c2ccc(OCC3COC(Cn4ccnc4)(c4ccc(Cl)cc4Cl)O3)cc2)CC1` (stereo not drawn) [Ketoconazole], the MIC [1, 4] is reported as 8 µg/mL and the “Sensitivity of cultured Candida albicans” value [2] is reported as “sensitive”.
`NC[C@H]1O[C@H](O[C@H]2[C@H](O)[C@@H](O[C@H]3O[C@H](CO)[C@@H](O)[C@H](N)[C@H]3O)[C@H](N)C[C@@H]2N)[C@H](N)C[C@@H]1O` [tobramycin] was tested, and the “Sensitivity of cultured bacteria” value [3] was “sensitive”.
